How the values were obtained:
[1] = target: Cat L (UniProt P07711); assay: Cathepsin enzyme inhibition assay (fluorogenic peptide substrate Z-Val-Val-Arg-AMC), Cathepsin L; type: biochemical, human and mouse; details: for IC50: enzyme 1 nM, substrate 20 μM, pH 6.5, read-out: CatL IC50; for CatL, % @25 uM: @25 uM compound
Procedure, shortened: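 Cathepsin L at 1 nM was mixed with compound, then started with 20 μM Z-Val-Val-Arg-AMC in pH 6.5 potassium phosphate with EDTA, Triton X-100 and 5 mM DTT. AMC fluorescence (ex 360/em 465 nm) was followed over 20 min. IC50 is given in μM.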

[2] = target: Cathepsin S (UniProt P25774); assay: Cathepsin enzyme inhibition assay (fluorogenic peptide substrate Z-Val-Val-Arg-AMC), Cathepsin S; type: biochemical, human and mouse; details: enzyme 1 nM, substrate 20 μM, pH 6.5; read-out: CatS IC50
Procedure, shortened: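 Human or mouse cathepsin S (1 nM) was run in 100 mM potassium phosphate pH 6.5 with 5 mM EDTA, 0.001% Triton X-100 and 5 mM DTT. The rise in AMC fluorescence from cleavage was measured, and IC50 values were calculated by standard methods and expressed in μM.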

IC50 [1] [µM]	IC50 [2] [nM]	CatL, % @25 uM [1] [% @25 uM]	Compound
6.38	0.758	–	N#CC1(NC(=O)[C@@H]2C[C@@H](S(=O)(=O)c3ccc(OCC(F)(F)F)cc3C(F)(F)F)CN2C(=O)C2(CO)CC2)CC1 [Example 451, (2S,4R)-1-(1-Hydroxymethyl-cyclopropanecarbonyl)-4-[4-(2,2,2-trifluoro-ethoxy)-2-trifluoromethyl-benzenesulfonyl]-pyrrolidine-2-carboxylic acid (1-cyano-cyclopropyl)-amide]
7.93	1.17	–	N#CC1(NC(=O)[C@@H]2C[C@@H](S(=O)(=O)c3ccccc3Cl)CN2C(=O)C2(CO)CC2)CC1 [Example 452, (2S,4R)-4-(2-Chloro-benzenesulfonyl)-1-(1-hydroxymethyl-cyclopropanecarbonyl)-pyrrolidine-2-carboxylic acid (1-cyano-cyclopropyl)-amide]
≥ 25	845	–	C=CCOc1ccccc1S(=O)(=O)[C@H]1CN[C@H](C(=O)NC2(C#N)CC2)C1 [Example 453, (2S,4R)-4-(2-Allyloxy-benzenesulfonyl)-pyrrolidine-2-carboxylic acid (1-cyano-cyclopropyl)-amide]
≥ 25	1660	–	CC1(C(=O)N2C[C@H](S(=O)(=O)CC3CC3)C[C@H]2C(=O)NC2(C#N)CC2)CC1 [Example 454, (2S,4R)-4-Cyclopropylmethanesulfonyl-1-(1-methyl-cyclopropanecarbonyl)-pyrrolidine-2-carboxylic acid (1-cyano-cyclopropyl)-amide]
≥ 25	77	–	C=CCN[C@@H](C(=O)N1C[C@H](S(=O)(=O)c2ccccc2OCC=C)C[C@H]1C(=O)NC1(C#N)CC1)c1ccc(Cl)cc1 [Example 455, (2S,4R)-1-[(R)-2-Allylamino-2-(4-chloro-phenyl)-acetyl]-4-(2-allyloxy-benzenesulfonyl)-pyrrolidine-2-carboxylic acid (1-cyano-cyclopropyl)-amide]
3.99	0.725	–	Cc1cc(N2C[C@H](S(=O)(=O)c3ccc(N4CC(F)(F)C4)cc3Cl)C[C@H]2C(=O)NC2(C#N)CC2)n(C2CCC2)n1 [Example 456, (2S,4R)-4-(2-chloro-4-(3,3-difluoroazetidin-1-yl)phenylsulfonyl)-N-(1-cyanocyclopropyl)-1-(1-cyclobutyl-3-methyl-1H-pyrazol-5-yl)pyrrolidine-2-carboxamide]
0.53	34000	–	N#CC1(NC(=O)[C@@H]2C[C@@H](S(=O)(=O)c3ccccc3)CN2C(=O)C2(c3ccc(Cl)cc3)CC2)CC1 [Example 457, (2S,4R)-1-(1-(4-chlorophenyl)cyclopropanecarbonyl)-N-(1-cyanocyclopropyl)-4-(phenylsulfonyl)pyrrolidine-2-carboxamide]
0.0065	0.505	–	N#CC1(NC(=O)[C@@H]2C[C@@H](S(=O)(=O)c3ccccc3Cl)CN2C(=O)C2(c3ccc(I)cc3)CC2)CC1 [Example 459, (2S,4R)-4-(2-Chloro-benzenesulfonyl)-1-[1-(4-iodo-phenyl)-cyclopropanecarbonyl]-pyrrolidine-2-carboxylic acid (1-cyano-cyclopropyl)-amide]
0.0525	5.85	–	COc1cc(C2(C(=O)N3C[C@H](S(=O)(=O)c4ccccc4Cl)C[C@H]3C(=O)NC3(C#N)CC3)CC2)c(Cl)cc1Cl [Example 460, (2S,4R)-4-(2-Chloro-benzenesulfonyl)-1-[1-(2,4-dichloro-5-methoxy-phenyl)-cyclopropanecarbonyl]-pyrrolidine-2-carboxylic acid (1-cyano-cyclopropyl)-amide]
0.0225	0.985	–	N#CC1(NC(=O)[C@@H]2C[C@@H](S(=O)(=O)c3ccccc3Cl)CN2C(=O)C2(c3cc(F)c(Cl)cc3Cl)CC2)CC1 [Example 461, (2S,4R)-4-(2-Chloro-benzenesulfonyl)-1-[1-(2,4-dichloro-5-fluoro-phenyl)-cyclopropanecarbonyl]-pyrrolidine-2-carboxylic acid (1-cyano-cyclopropyl)-amide]
> 25	9490	–	Cc1cc(N2C[C@H](S(C)(=O)=O)C[C@H]2C(=O)NC2(C#N)CC2)n(-c2ccc(C(F)(F)F)cc2)n1 [Example 462, (2S,4R)-4-Methanesulfonyl-1-[5-methyl-2-(4-trifluoromethyl-phenyl)-2H-pyrazol-3-yl]-pyrrolidine-2-carboxylic acid (1-cyano-cyclopropyl)-amide]
> 25	5130	–	Cc1cc(N2C[C@H](S(C)(=O)=O)C[C@H]2C(=O)NC2(C#N)CC2)n(-c2ccnc(Cl)c2)n1 [Example 463, (2S,4R)-1-[2-(2-Chloro-pyridin-4-yl)-5-methyl-2H-pyrazol-3-yl]-4-methanesulfonyl-pyrrolidine-2-carboxylic acid (1-cyano-cyclopropyl)-amide]
3.02	1.15	–	Cc1cc(N2C[C@H](S(=O)(=O)c3ccc(N4CC(F)(F)C4)cc3Cl)C[C@H]2C(=O)NC2(C#N)CC2)n(C2CCOCC2)n1 [Example 464, (2S,4R)-4-(2-chloro-4-(3,3-difluoroazetidin-1-yl)phenylsulfonyl)-N-(1-cyanocyclopropyl)-1-(3-methyl-1-(tetrahydro-2H-pyran-4-yl)-1H-pyrazol-5-yl)pyrrolidine-2-carboxamide]
2.74	3.05	–	Cc1cc(N2C[C@H](S(=O)(=O)c3ccccc3Cl)C[C@H]2C(=O)NC2(C#N)CC2)n(C2CCSCC2)n1 [Example 465, (2S,4R)-4-(2-chlorophenylsulfonyl)-N-(1-cyanocyclopropyl)-1-(3-methyl-1-(tetrahydro-2H-thiopyran-4-yl)-1H-pyrazol-5-yl)pyrrolidine-2-carboxamide]
–	8600	95	Cc1cc(N2C[C@H](S(C)(=O)=O)C[C@H]2C(=O)NC2(C#N)CC2)n(CC(F)(F)F)n1 [Example 466, (2S,4R)-4-Methanesulfonyl-1-[5-methyl-2-(2,2,2-trifluoro-ethyl)-2H-pyrazol-3-yl]-pyrrolidine-2-carboxylic acid (1-cyano-cyclopropyl)-amide]
–	2080	95	Cc1cc(N2C[C@H](S(=O)(=O)CC3CC3)C[C@H]2C(=O)NC2(C#N)CC2)n(CC(F)(F)F)n1 [Example 467, (2S,4R)-4-Cyclopropylmethanesulfonyl-1-[5-methyl-2-(2,2,2-trifluoro-ethyl)-2H-pyrazol-3-yl]-pyrrolidine-2-carboxylic acid (1-cyano-cyclopropyl)-amide]
–	840	97	Cc1cc(N2C[C@H](S(=O)(=O)CC3CC3)C[C@H]2C(=O)NC2(C#N)CC2)n(-c2ccc(C(F)(F)F)cc2)n1 [Example 469, (2S,4R)-4-Cyclopropylmethanesulfonyl-1-[5-methyl-2-(4-trifluoromethyl-phenyl)-2H-pyrazol-3-yl]-pyrrolidine-2-carboxylic acid (1-cyano-cyclopropyl)-amide]
–	2790	94	Cc1cc(N2C[C@H](S(=O)(=O)CC3CC3)C[C@H]2C(=O)NC2(C#N)CC2)n(CCc2ccccc2)n1 [Example 470, (2S,4R)-4-Cyclopropylmethanesulfonyl-1-(5-methyl-2-phenethyl-2H-pyrazol-3-yl)-pyrrolidine-2-carboxylic acid (1-cyano-cyclopropyl)-amide]

From patent publication US8163793B2, “Proline derivatives” (Hoffman-La Roche Inc., priority 2009, dated 2012)
